Data published in patent US20260297042A1, “BIARYLAMIDE DERIVATIVES AND THEIR USE AS PKMYT1 INHIBITORS” (CANCER RESEARCH TECHNOLOGY LIMITED, priority 2023, published 2026).

Columns and labels:
[1] = system: h-TERT-RPE1 TP53−/− CCNE1 high expressing clone cell line 7 (CL7); assay: Nuclear count cell proliferation assay, CCNE1 high expressing clone cell line 7 (CL7) of h-TERT-RPE1 TP53−/−; format: cell-based; details: banded; for Selectivity Ratio Wt vs. CL7: GI50 ratio RPE Wt vs. CL7, >N = at least in this band; for GI50: hTERT-RPE1, h-TERT-RPE1 TP53−/− CCNE1 high clone CL7, nuclear count, around 6 population doublings, read-out: RPE CL7 GI50
Method: (§1) h-TERT-RPE1 TP53−/− and CCNE1 high expressing clones (clone cell lines 7 and 15) were treated with test compounds dissolved in DMSO at serially diluted concentrations alongside a DMSO only control for around 6 population doublings time. Cells were then fixed with 4% Paraformaldehyde and the cell nuclei were stained with DAPI (Sigma D9542). Images covering each well were acquired by an Opera Phenix® High-Content Screening System (PerkinElmer). Image analysis was performed using Harmony® high-content analysis software (PerkinElmer). Data analysis was performed using Microsoft Excel® and GI50 estimates generated with GraphPad Prism v9. Percent nuclear count was compared to vehicle control wells and used to measure inhibition of proliferation.

[2] = system: h-TERT-RPE1 TP53−/− parental cells; assay: Nuclear count cell proliferation assay, parental (wild type) h-TERT-RPE1 TP53−/− cells; format: cell-based; details: hTERT-RPE1, h-TERT-RPE1 TP53−/− parental (Wt), around 6 population doublings, banded, read-out: RPE Wt GI50
Method: as §1

OVCAR3 cells = assay: Cancer cell line proliferation assay, nuclear count, OVCAR3 (CCNE1-amplified); format: cell-based; details: banded; for Selectivity ratio KYSE30 GI50 vs. OVCAR3 GI50: >N = at least in this band; for GI50: Homo sapiens, OVCAR-3, CCNE1-amplified ovarian cancer, nuclear count
Method: as §1
(§2) Cancer cell lines with either normal (KYSE-30) or amplified CCNE1 expression (OVCAR3-ovarian cancer) were evaluated for their sensitivity to PKMYT1 inhibitors in a nuclear count assay as described above for h-TERT-RPE1 TP53−/− and a CCNE1 high expressing clones, taking into account the slower cell cycle division times of these lines.

Human PKMYT1 = molecular target: T1, Human PKMYT1 (Homo sapiens, UniProt Q99640); assay: PKMYT1 biochemical ADP-Glo enzymatic assay; details: ADP-Glo; 15 nM PKMYT1 kinase domain, 500 µM ATP, 60 minutes at 26° C.; banded
T1 construct: Human PKMYT1 75-362 was cloned as a TEV cleavable 6xHis fusion; 6xHis (TEV cleavable) (cleaved yes); made in house; host or cells: bacterial cells
T1 sequence (Q99640 75-362): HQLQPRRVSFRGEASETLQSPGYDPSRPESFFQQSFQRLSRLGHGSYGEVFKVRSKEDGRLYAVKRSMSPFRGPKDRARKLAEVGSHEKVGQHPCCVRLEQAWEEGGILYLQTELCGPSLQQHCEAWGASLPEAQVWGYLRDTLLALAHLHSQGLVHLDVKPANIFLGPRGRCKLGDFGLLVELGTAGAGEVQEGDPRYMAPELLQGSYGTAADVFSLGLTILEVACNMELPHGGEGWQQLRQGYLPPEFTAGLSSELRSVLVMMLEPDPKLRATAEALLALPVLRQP
Summary of the method: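 Luminescent ADP-Glo Max read-out of ADP produced by 15 nM PKMYT1 (residues 75-362, bacterial, His-tag removed) from 500 µM ATP without peptide substrate. Reaction: 50 mM HEPES pH 7.5, 10 mM MgCl2, 1 mM EGTA, 0.01% Brij-35, 60 min, 26 °C. IC50 values fitted from 10-point curves.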

[3] = system: h-TERT-RPE1 TP53−/− CCNE1 high expressing clone cell line 15 (CL15); assay: Nuclear count cell proliferation assay, CCNE1 high expressing clone cell line 15 (CL15) of h-TERT-RPE1 TP53−/−; format: cell-based; details: banded; for Selectivity Ratio Wt vs. CL15: GI50 ratio RPE Wt vs. CL15, >N = at least in this band; for GI50: h-TERT-RPE1 TP53−/− CCNE1 high clone CL15, nuclear count, around 6 population doublings, read-out: RPE CL15 GI50
Method: as §1

WEE1 = molecular target: T2, WEE1 (Homo sapiens, UniProt P30291); assay: Selectivity versus WEE1 assay (ADP-Glo enzymatic assay); format: biochemical; details: banded; for IC50: ADP-Glo, 15 nM WEE1, 60 minutes at 26° C.; for PKMYT1 vs. WEE1 selectivity: fold difference in selectivity for PKMYT1 over WEE1, ">N" = at least in this band but could be higher
T2 construct: purchased Thermo Fisher PR7373A
Summary of the method: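 ADP-Glo luminescence read-out after a 60 min reaction at 26° C, initiated by 30 µM ATP, with 15 nM enzyme in HEPES pH 7.5/MgCl2/EGTA/Brij-35 buffer containing 1% DMSO. Replicate IC50 values had to agree within 3-fold and fits needed r2 >0.9.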

KYSE-30 cells = assay: Cancer cell line proliferation assay, nuclear count, KYSE-30 (normal CCNE1); format: cell-based; details: Homo sapiens, normal CCNE1 expression, banded, read-out: KYSE30 GI50
Method: as §1, §2

solid tumours = details: clinicaltrials.gov; cited from earlier work
[4] = system: pancreatic PDX model with increased expression of CCNE1; details: alone or in combination with Gemcitabine; Gallo et al., 2022; cited from earlier work
[5] = system: breast and ovarian cancers overexpressing CCNE1; details: alone or in combination with Gemcitabine; Gallo et al., 2022; cited from earlier work

T2 sequence (P30291 whole entry): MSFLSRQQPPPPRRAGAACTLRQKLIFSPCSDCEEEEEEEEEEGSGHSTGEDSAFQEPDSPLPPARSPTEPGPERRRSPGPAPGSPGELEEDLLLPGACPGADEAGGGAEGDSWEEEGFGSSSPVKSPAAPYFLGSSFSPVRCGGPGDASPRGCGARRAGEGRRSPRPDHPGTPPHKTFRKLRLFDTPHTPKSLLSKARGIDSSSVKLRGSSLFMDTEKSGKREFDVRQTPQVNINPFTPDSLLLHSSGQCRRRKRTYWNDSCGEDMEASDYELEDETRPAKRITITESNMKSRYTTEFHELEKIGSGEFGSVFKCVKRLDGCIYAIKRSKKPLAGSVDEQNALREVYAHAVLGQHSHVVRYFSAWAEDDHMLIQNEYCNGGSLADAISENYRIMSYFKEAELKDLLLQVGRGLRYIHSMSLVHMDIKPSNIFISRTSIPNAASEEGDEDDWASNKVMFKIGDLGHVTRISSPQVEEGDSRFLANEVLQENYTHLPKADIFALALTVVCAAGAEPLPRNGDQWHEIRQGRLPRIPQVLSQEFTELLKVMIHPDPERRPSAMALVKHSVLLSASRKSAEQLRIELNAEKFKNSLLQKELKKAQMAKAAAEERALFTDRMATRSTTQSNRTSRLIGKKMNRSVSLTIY

SMILES	Selectivity Ratio Wt vs. CL7 [1]	GI50 [1]	GI50 [2]	Selectivity ratio KYSE30 GI50 vs. OVCAR3 GI50 (OVCAR3 cells)	GI50 (OVCAR3 cells)	IC50 (Human PKMYT1)	Selectivity Ratio Wt vs. CL15 [3]	GI50 [3]	IC50 (WEE1)	PKMYT1 vs. WEE1 selectivity (WEE1)	GI50 (KYSE-30 cells)	toxicity in clinical trials (solid tumours)	efficacy in vivo [4]	efficacy in vivo [5]
Cc1ccc(O)c(C)c1NC(=O)c1cnc(Nc2ccn(CC(=O)N3CC(F)(F)C(F)(F)C3)n2)s1 [BAA-181, N-(3-hydroxy-2,6-dimethyl-phenyl)-2-[[1-[2-oxo-2-(3,3,4,4-tetrafluoropyrrolidin-1-yl)ethyl]pyrazol-3-yl]amino]thiazole-5-carboxamide]	X (3-<10 fold)	< 500 nM	500 to 3000 nM	>X (3-<10 fold)	3000 to 10000 nM	< 50 nM	Y (10-30 fold)	< 500 nM	> 11000 nM	Y (1000-5000 fold)	> 10000 nM	–	–	–
C=CCn1c(=O)c2cnc(Nc3ccc(N4CCN(C)CC4)cc3)nc2n1-c1cccc(C(C)(C)O)n1 [adavosertib]	–	–	–	–	–	–	–	–	–	–	–	presented significant toxicity	–	–
CCN(CC)C(=O)Cn1ccc(Nc2ncc(C(=O)Nc3c(C)ccc(O)c3C)s2)n1 [BAA-173, 2-[[1-[2-(diethylamino)-2-oxo-ethyl]pyrazol-3-yl]amino]-N-(3-hydroxy-2,6-dimethyl-phenyl)thiazole-5-carboxamide]	X (3-<10 fold)	< 500 nM	500 to 3000 nM	>X (3-<10 fold)	3000 to 10000 nM	< 50 nM	–	–	> 11000 nM	Y (1000-5000 fold)	> 10000 nM	–	–	–
Cc1ccc(O)c(C)c1NC(=O)c1cnc(Nc2ccn(CC(=O)N3CCN(C(=O)OC(C)(C)C)C(C)(C)C3)n2)s1 [BAA-179, tert-butyl 4-[2-[3-[[5-[(3-hydroxy-2,6-dimethyl-phenyl)carbamoyl]thiazol-2-yl]amino]pyrazol-1-yl]acetyl]-2,2-dimethyl-piperazine-1-carboxylate]	–	–	3000 to 10000 nM	Z (>30 fold)	< 500 nM	< 50 nM	Y (10-30 fold)	< 500 nM	1000 to 11000 nM	X (100-<1000 fold)	> 10000 nM	–	–	–
Cc1cc2c(C(N)=O)c(N)n(-c3c(C)ccc(O)c3C)c2nc1C [RP-6306]	–	–	–	–	–	–	–	–	–	–	–	–	has shown efficacy in vivo	has shown efficacy in vivo
Cc1ccc(O)c(C)c1NC(=O)c1cnc(Nc2ccn(CC(=O)N3CCCC3)n2)s1 [BAA-148, N-(3-hydroxy-2,6-dimethyl-phenyl)-2-[[1-(2-oxo-2-pyrrolidin-1-yl-ethyl)pyrazol-3-yl]amino]thiazole-5-carboxamide]	–	–	500 to 3000 nM	X (3-<10 fold)	3000 to 10000 nM	< 50 nM	X (3-<10 fold)	500 to 3000 nM	> 11000 nM	Y (1000-5000 fold)	> 10000 nM	–	–	–
